Measured values reported in paper PMC8746528, “Novel Substituted Purine Isosteres: Synthesis, Structure-Activity Relationships and Cytotoxic Activity Evaluation” (Molecules, 2021).

Tests used:
[1] = tested on: PC-3 prostate cancer cell line; assay: MTT cell viability assay, PC-3; format: cell-based; details: Homo sapiens, treatment 72 h and 96 h, mean ± SD of three experiments
Description: (§1) The human HCT116 colon cancer cell line and PC-3 prostate cancer cell line were obtained from the American Type Cell Culture (ATCC, Bethesda, Md). Both cell lines were grown in 75 cm^2 culture flasks at 37 °C in 5% CO2 using Roswell Park Memorial Institute 1640 medium (RPMI 1640, Gibco) and Dulbecco’s modified Eagle’s medium F/12 (DMEM/F-12, Gibco), respectively, containing 10% fetal bovine serum (FBS, Gibco). To test the inhibitory activities of compounds using a cell-based assay, MTT assay was performed for cell viability, as described previously. Briefly, HCT116 cells were plated at a density of 1500 per well, while PC-3 cells were plated at a density of 750 per well in a 96-well plate. After 24 h, cells were treated with the indicated compounds in a dose-dependent manner for 72 h and 96 h (all tested compounds provided clear solutions). MTT [3-(4,5-dimethylthiazol-2-yl)-2,5-diphenyltetrazolium bromide] (Sigma M-5655) was added at a final concentration of 0.5 mg/mL directly to each well for 4 h at 37 °C. The medium was aspirated, and the blue MTT formazan precipitate was dissolved in dimethyl sulfoxide (DMSO). Absorbance was determined in a Powerwave microplate spectrophotometer (Biotek Instruments, Inc.) at 540 nm. Viable cell numbers were determined by tetrazolium conversion to its formazan dye. The IC50 was calculated by Microsoft Excel equation and confirmed by GraphPad Prism (7.0). Each experiment was performed in triplicate and mean values ± SD are reported.

[2] = tested on: HCT116 colon cancer cell line; assay: MTT cell viability assay, HCT116; format: cell-based; details: Homo sapiens, HCT-116, treatment 72 h and 96 h, mean ± SD of three experiments
Description: as §1

[3] = tested on: normal human fibroblasts (WI-38); assay: MTT cytotoxicity towards normal fibroblasts; format: cell-based; details: for Selectivity Index HCT116: SI = IC50 non cancer cell (WI-38)/IC50 cancer cell (HCT116); for Selectivity Index PC-3: SI = IC50 non cancer cell (WI-38)/IC50 cancer cell (PC-3); for cytotoxicity to normal cells in words / IC50: WI-38; for IC50: MTT, normal human fibroblasts
Description: as §1
Figure 1 Dose-response curves for the administration of 14b, 26b, 35b on HCT116, PC-3 and WI-38 cells, as assessed by the MTT assay. Results are expressed as a percentage of controls. Statistical analysis was performed in triplicate determination at p < 0.05.

PC-3 cells [4] = assay: DNA staining (propidium iodide) and flow cytometric cell cycle analysis; format: cell-based, human; details: for Cell cycle phase distribution G0/G1 / Cell cycle phase distribution G2/M / Cell cycle phase distribution S: compound at its IC50
Description: (§2) For cell cycle analysis, cell culture supernatants and attached cells were collected, centrifuged, washed in PBS, fixed in 50% ethanol and stained with an RNase-containing propidium iodide solution (50 μg/mL) (all reagents from Sigma). For cell apoptosis assay, cells were harvested and stained with Annexin V binding buffer, Annexin V–FITC and 7-AAD (Annexin V-FITC Apoptosis Detection Kit, BD Systems). DNA content was analyzed on a BD Accuri C6 Flow Cytometer using the BD CSampler software (BD Biosciences, USA). Non-apoptotic events were used to calculate the percentage of cells distributed in each phase. A p value < 0.05 was considered to be statistically significant (Student’s t-test).

PC-3 cells [5] = assay: Annexin V-7AAD apoptosis assay; format: cell-based, human; details: for apoptotic nuclei: PC-3, 72 h, compound at its IC50, AnnexinV-7AAD staining, vehicle 3.5%
Description: as §2

[6] = tested on: a variety of cancer cell lines; set-up: method as in PMID 27720292; details: cited from earlier work
[7] = positive control at 25 nM, PC-3

IC50 [1] [nM] | IC50 [2] [nM] | melting point [°C] | SMILES | Selectivity Index HCT116 [3] | Selectivity Index PC-3 [3] | cytotoxicity to normal cells in words [3] | IC50 [3] [µM] | Cell cycle phase distribution G0/G1 (PC-3 cells [4]; PC-3, 72 h) | Cell cycle phase distribution G2/M (PC-3 cells [4]; PC-3, 72 h) | Cell cycle phase distribution S (PC-3 cells [4]; PC-3, 72 h) | apoptotic nuclei (PC-3 cells [5]) [%] | IC50 values [6] | G2/M phase blockade (PC-3 cells [4]; [7]) [%] | induction of apoptosis (PC-3 cells [5]; [7]) [%] | selectivity index ([3]; normal cell line WI-38 vs both cancer cell lines) | cell-cycle perturbation in words (PC-3 cells [4]; PC-3, 72 h)
1950 ± 50 | 2050 ± 50 | > 250 | Fc1cccc(-c2c[nH]c3c(Nc4ccccc4)ncnc23)c1 [26b, 7-(3-Fluorophenyl)-Ν-phenyl-5H-pyrrolo[3,2-d]pyrimidin-4-amine] | 8.3 | 8.7 | non-cytotoxic to the normal cell line | 17 ± 1.5 | 54.4 (±1.1) % | 24.9 (±1.6) % | 20.7 (±02.7) % | 17.7 |  |  |  |  | 
 |  |  | COc1cc(Nc2nccc3c(-c4ccccc4)n[nH]c23)cc(OC)c1OC [3-phenyl-7-(3,4,5-trimethoxyphenyl)aminopyrazolo[3,4-c]pyridine] |  |  |  |  |  |  |  |  | medium to high nM range |  |  |  | 
25 ± 4 | 95 ± 10 |  | COc1cccc2c1C(=O)c1c(O)c3c(c(O)c1C2=O)C[C@@](O)(C(=O)CO)C[C@@H]3O[C@H]1C[C@H](N)[C@H](O)[C@H](C)O1 [Dox, Doxorubicin, reference compound] |  |  |  |  |  |  |  |  |  | 58 | 28 |  | 
550 ± 50 | 2300 ± 200 | 237 to 238 | Fc1cccc(-c2n[nH]c3c(Nc4ccccc4)ncnc23)c1 [35b, 3-(3-Fluorophenyl)-Ν-phenyl-1H-pyrazolo[4,3-d]pyrimidin-7-amine] | 5.3 | 22.2 | non-cytotoxic to the normal cell line | 12.2 ± 1 | 58.9 (±0.6) % | 24.9 (±2.4) % | 16.3 (±1.8) % | 11.5 |  |  |  |  | 
55 ± 15 | 90 ± 10 | 168 to 169 | Fc1cccc(-c2c[nH]c3c(Nc4ccccc4)nccc23)c1 [14b, 3-(3-Fluorophenyl)-Ν-phenyl-1H-pyrrolo[2,3-c]pyridin-7-amine] | 222 | 363 | practically non-toxic against the normal cell line | 20 ± 0.4 | 48.7 (±0.6) % | 30.8 (±0.8) % | 20.5 (±1.4) % | 26.5 |  |  |  | higher than 200 | statistically significant accumulation of PC-3 cells at G2/M phase
1450 ± 250 | 3900 ± 300 | 149 to 150 | COc1cc(Nc2nccc3c(-c4cccc(F)c4)c[nH]c23)cc(OC)c1OC [14d, 3-(3-Fluorophenyl)-N-(3,4,5-trimethoxyphenyl)-1H-pyrrolo[2,3-c]pyridin-7-amine] |  |  |  | < 10 |  |  |  |  |  |  |  |  | 
